Where “and” joins values, the source holds several entries; their conditions need not be identical. Equal values may be shown once.
Assays:
GK rats [1] = experiment: 13C-labeled glucose tolerance test (tissue 13C-glycogen); assay type: in vivo; settings: GK rat, 13C-GTT after sub-chronic treatment; vs MK-8666 or vehicle
Protocol: On day 0, GK rats were selected and sorted into treatment groups based on ambient glucose measured via glucometer at 1 h post lights on. MK-8666 at 30 mg/kg was administered in feed (Research Diets) and provided ad lib on day 0. On days 1–6, rats were dosed via oral gavage (PO) at a volume of 5 ml/kg daily at approximately 12:30 PM with either vehicle (0.5% methylcellulose) or AP1 at 10 mg/kg. Rats from the MK-8666 group were administered vehicle PO at this time. On day 7, ambient glucose was measured 1 hr post lights on and food was removed. After approximately 5 hrs fasting, glucose was measured at time = - 60 min, followed by PO administration of vehicle or AP1. […] Blood glucose was then measured at t = 20, 40, 60, 120 minutes post challenge. […]
Glycogen is a primary site of glucose disposal in both liver and muscle; however glycogen was not preserved in our tissue extraction protocol. To quantify tissue 13C-glycogen, a separate piece of tissue from each sample was analyzed. […] The resulting glycogen-derived glucose solution was analyzed for total glucose using a glucose oxidase / horseradish peroxidase assay kit and fluorescence-based product detection according to the manufacturers’ instructions (BioVision Glycogen Assay Kit, Milpitas, CA).

GK rats [2] = experiment: Endogenous glucose production in vivo (2H/13C dual tracer); parameters: species or system rat;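 on Glucose production, EGP Total: micromoles per kg body weight per minute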;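 on Glucose production, Glycerol: absolute flux in micromoles per kg per minute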;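 on Glucose production, Glycogen: absolute flux in micromoles per kg per minute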;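 on Glucose production, TCA: absolute flux in micromoles per kg per minute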
Protocol: To evaluate the effects of the GPR40 partial and AgoPAM compounds on EGP in vivo, a 2H/13C dual tracer approach was used to calculate EGP and its contributing sources. Following the chronic treatments described above, 0.9% NaCl salinated deuterium oxide (D2O, Sigma-Aldrich, St. Louis, MO) was administered to all animals via intraperitoneal (IP) injection at dose volume of 20 ml/kg at 1 hr post lights on. Animals were then placed in clean cages and food was removed. After a 5 hour fast, blood glucose was measured and animals were dosed with 50 mg/kg [U-13C] glucose (Sigma-Aldrich, St. Louis, MO) IP at 5 ml/kg. Blood was collected via tail snip at time points from 60–150 min post treatment to measure blood glucose (via glucometer) as well as endogenous (12C-glucose) and exogenous (13C-glucose) via GCMS. Following the last tail blood collection, rats were anesthetized with isoflurane and cardiac blood was collected into K2EDTA tubes (Becton, Dickinson and Co., Franklin Lakes, NJ).
The serially collected blood samples were analyzed for 13C-glucose enrichment using GC-MS analysis. The % 13C glucose enrichments were then combined with the total glucose readings to calculate the concentration of 13C-glucose, and these values were modeled with a two-compartment model of whole body glucose metabolism to calculate the average EGP for the period from 0–150 minutes.
Terminal blood samples were analyzed for relative 2H enrichment in plasma glucose using the monoacetone glucose method. Briefly, samples were extracted with 70% perchloric acid at a ratio of 50 μl perchloric acid per 1 ml plasma and centrifuged at 25,000 rcf for 10 min at 4°C. The supernatant was collected and the pH was adjusted to 6–8 using aqueous KOH. The samples were then lyophilized overnight. To convert plasma glucose to monoacetone glucose (MAG), acetone and concentrated sulfuric acid were added to the lyophilized samples and stirred for 4 hours at room temperature. Water was then added and the pH adjusted to 2.0 with 3M Na2CO3. Samples were stirred moderately for 18 hours at room temperature, the pH was adjusted to 7 with 3M Na2CO3, and the samples were completely dried by speed vacuum concentration. The resulting MAG samples were then extracted in hot ethyl acetate, dried overnight under a stream of N2 gas, and purified using Discovery DSC-18 SPE columns (6 ml, 1 g bed weight). For the SPE protocol, MAG samples were reconstituted in 3 ml water and passed over the columns which were pre-washed with 2 ml methanol. The columns were rinsed twice with 1 ml water and the MAG was eluted with 5% acetonitrile. The acetonitrile eluent was then transferred to a glass scintillation vial and freeze dried. Purified MAG samples were solubilized in 180 μl 90% acetonitrile for 2H NMR analysis which was performed using the lock channel of a 950 MHz Bruker NMR spectrometer (David H Murdock Research Institute, DHMRI Kannapolis, NC). Acquisition parameters were as follows: 90° pulse, D1 = 1 s, 1H broadband decoupling, NS = 3600, acquisition time ~ 1 hr. The 2H NMR spectra of the MAG samples were then analyzed using Matlab (The Mathworks Inc, Natick, MA) to model the NMR peaks with a Lorentzian lineshape, and the results were used to calculate integrals for each of the seven NMR resonances in the MAG spectrum. Peaks 2, 5, and 6s were then used to calculate the relative sources of EGP (i.e. gluconeogenesis from TCA cycle substrates, glucose production from triose phosphates, and glycogenolysis) and these values were combined with the total EGP measurement to calculate absolute fluxes of glucose production.

[3] = GK rats, 30 mpk, individual animal values (data for Fig 8), 30 mg/kg

Row | Structure (SMILES) | skeletal muscle 13C-glycogen levels (GK rats [1]) | endogenous glucose production (EGP) (GK rats [2]; GK rat, following chronic treatment) | Glucose production, EGP Total (GK rats [2]; [3]) | Glucose production, Glycerol (GK rats [2]; [3]) | Glucose production, Glycogen (GK rats [2]; [3]) | Glucose production, TCA (GK rats [2]; [3])
1 | COc1ccc(F)c(-c2ccc([C@@H]3CCc4ccc([C@H](C5CC5)[C@H](C)C(=O)O)cc4O3)cc2)c1 [AP1] | increased |  |  |  |  | 
2 | Cc1cc(OCCCS(C)(=O)=O)cc(C)c1-c1cccc(COc2cc3c(cn2)[C@H]2[C@@H](C3)[C@@H]2C(=O)O)c1 [MK-8666] |  | reduced | 47.3366 µmol/kg/min and 49.7015 µmol/kg/min and 23.1675 µmol/kg/min and 46.5921 µmol/kg/min and 49.3944 µmol/kg/min and 59.3105 µmol/kg/min and 53.4963 µmol/kg/min | 8.397 µmol/kg/min and 6.008 µmol/kg/min and 2.752 µmol/kg/min and 6.734 µmol/kg/min and 8.91 µmol/kg/min and 9 µmol/kg/min and 9.76 µmol/kg/min | 15.2782 µmol/kg/min and 19.9182 µmol/kg/min and 7.082 µmol/kg/min and 20.1227 µmol/kg/min and 18.1009 µmol/kg/min and 21.3139 µmol/kg/min and 17.6544 µmol/kg/min | 23.6618 µmol/kg/min and 23.7752 µmol/kg/min and 13.3332 µmol/kg/min and 19.7357 µmol/kg/min and 22.3838 µmol/kg/min and 28.9962 µmol/kg/min and 26.0816 µmol/kg/min

Source: publication PMC5650142, “GPR40 partial agonists and AgoPAMs: Differentiating effects on glucose and hormonal secretions in the rodent” (PLoS ONE, 2017)
